Literature values in patent publication US20080182860A1, “Pyrimidine Compounds as Purine Receptor Antagonist” (VERNALIS (R&D) LTD., priority 2004, published 2008).

How the values were obtained:
Parkinsonian patients = conditions: 150 mg/day slow release oral

SMILES | anticataleptic effects of a subthreshold dose of L-DOPA plus benserazide (adenosine A2A receptor; in vivo) | catalepsy induced by haloperidol and reserpine (adenosine A2A receptor; in vivo) | cataleptic responses induced by intracerebroventricular CGS 21680 (adenosine A2A receptor; oral administration) | serum theophylline levels (Parkinsonian patients; after one week, 15 Parkinsonian patients) | mean objective disability scores (Parkinsonian patients; up to 12 weeks)
CCCn1c(=O)c2c(nc(/C=C/c3ccc(OC)c(OC)c3)n2C)n(CCC)c1=O [KF 17837, (E)-8-(3,4-dimethoxystyryl)-1,3-dipropyl-7-methylxanthine] | potentiated | reduced | significantly ameliorated |  | 
Cn1c(=O)c2[nH]cnc2n(C)c1=O [Theophylline, 1,3-dimethylxanthine] |  |  |  | 4.44 mg/L | significant improvements
